Test results as given in patent publication US9796711B2, “Substituted pyrazolo[3,4-b]pyridin-6-carboxylic acids and method of use” (AbbVie S.àr.l., priority 2015, dated 2017).

Biological target: T1, ΔF508-CFTR (Homo sapiens, UniProt P13569, DEL508-508)
T1 construct: host or cells: CFBE41o-, doxycycline-inducible
Assay: CFTR cell surface levels using HRP-tagged ΔF508-CFTR expressing CFBE cells, in the presence of a co-corrector
Assay type: cell-based
Settings: HRP-tagged ΔF508-CFTR expressing CFBE cells, in the presence of 3 μM co-corrector; for EC50: read-out: EC50
Description: Measuring CFTR Cell Surface Levels Using HRP-Tagged AF508-CFTR Expressing CFBE Cells
The HRP-tagged AF508-CFTR cell assay measures the expression of CFTR-ΔF508 at the plasma membrane. CFTR-ΔF508 has a folding defect leading to absence of protein at the plasma membrane. This assay is used to evaluate the capacity of compounds to increase the expression of CFTR-ΔF508 at the plasma membrane. The CFTR-ΔF508 is tagged with HRP (horse radish peroxidase enzyme) within the ECL4 (Extracellular loop 4) of CFTR (Phuan, P.-W. et al. Synergy-based small-molecule screen using a human lung epithelial cell line yields AF508-CFTR correctors that augment VX-809 maximal efficacy. Mol. Pharmacol. 86, 42-51 (2014)). When HRP-tagged AF508-CFTR is present at the plasma membrane, the HRP enzyme activity can be measured. The amount of CFTR-ΔF508 that can be rescued to the plasma membrane is correlated with the amount of functional enzyme that can be measured.
There are several ways to measure the capacity of compounds to rescue CFTR-ΔF508 to the plasma membrane; either compounds are evaluated on their own and the impact on plasma membrane levels is measured or compounds are evaluated in combination with a co-corrector, i.e. a compound that rescues CFTR-ΔF508 to the plasma membrane but rescue can be enhanced by addition of compounds due to a complementary mode of action.
Activity of Compounds in Combination with Co-Corrector:
For this purpose doxycycline-inducible AF508-CFTR-HRP expressing CFBE4lo-cells (obtained from Gergely Lukacs, McGill University) were maintained in MEM (Minimum Essential Medium, Gibco; 31095) supplemented with 10% fetal bovine serum (Hyclone; SV30160.03) under puromycin (3 μg/mL) and G418 selection (0.2 mg/mL). For compound testing, cells were seeded at 4000 cells/well in white 384-well plates (Greiner; 781080) in 50 μL of medium containing 0.5 μg/mL doxycycline and incubated for 68 hours at 37° C., 5% CO2. On day four, 10 μL of test compounds diluted in PBS (phosphate buffered saline) were added to the plates at a final DMSO concentration of 0.1%. In order to measure compound synergy with a co-corrector, 3 μM co-corrector (3-[(2R,4R)-4-({[1-(2,2-difluoro-1,3-benzodioxol-5-yl)cyclopropyl]carbonyl}amino)-7-methoxy-3,4-dihydro-2H-chromen-2-yl]benzoic acid) was added along with test compounds. All compound plates contained negative controls (DMSO) and positive controls (3 μM co-corrector). Cell plates were incubated at 33° C., 5% CO2 for 20 hours. On day five, the cells were washed five times with phosphate-buffered saline, and HRP activity was assayed by the addition of 50 μL/well of HRP substrate (SuperSignal™ West Pico Chemiluminescent Substrate, Thermo Scientific; 34080). After incubation for 15 minutes in the dark, the chemiluminescence was measured using a plate reader (EnVision®, Perkin Elmer). Raw data were normalized to percentage activity values using the equation: 100×(Sample−Negative control)/(Positive control−Negative Control).

T1 sequence (P13569 with tags, fused parts or gaps DEL508-508): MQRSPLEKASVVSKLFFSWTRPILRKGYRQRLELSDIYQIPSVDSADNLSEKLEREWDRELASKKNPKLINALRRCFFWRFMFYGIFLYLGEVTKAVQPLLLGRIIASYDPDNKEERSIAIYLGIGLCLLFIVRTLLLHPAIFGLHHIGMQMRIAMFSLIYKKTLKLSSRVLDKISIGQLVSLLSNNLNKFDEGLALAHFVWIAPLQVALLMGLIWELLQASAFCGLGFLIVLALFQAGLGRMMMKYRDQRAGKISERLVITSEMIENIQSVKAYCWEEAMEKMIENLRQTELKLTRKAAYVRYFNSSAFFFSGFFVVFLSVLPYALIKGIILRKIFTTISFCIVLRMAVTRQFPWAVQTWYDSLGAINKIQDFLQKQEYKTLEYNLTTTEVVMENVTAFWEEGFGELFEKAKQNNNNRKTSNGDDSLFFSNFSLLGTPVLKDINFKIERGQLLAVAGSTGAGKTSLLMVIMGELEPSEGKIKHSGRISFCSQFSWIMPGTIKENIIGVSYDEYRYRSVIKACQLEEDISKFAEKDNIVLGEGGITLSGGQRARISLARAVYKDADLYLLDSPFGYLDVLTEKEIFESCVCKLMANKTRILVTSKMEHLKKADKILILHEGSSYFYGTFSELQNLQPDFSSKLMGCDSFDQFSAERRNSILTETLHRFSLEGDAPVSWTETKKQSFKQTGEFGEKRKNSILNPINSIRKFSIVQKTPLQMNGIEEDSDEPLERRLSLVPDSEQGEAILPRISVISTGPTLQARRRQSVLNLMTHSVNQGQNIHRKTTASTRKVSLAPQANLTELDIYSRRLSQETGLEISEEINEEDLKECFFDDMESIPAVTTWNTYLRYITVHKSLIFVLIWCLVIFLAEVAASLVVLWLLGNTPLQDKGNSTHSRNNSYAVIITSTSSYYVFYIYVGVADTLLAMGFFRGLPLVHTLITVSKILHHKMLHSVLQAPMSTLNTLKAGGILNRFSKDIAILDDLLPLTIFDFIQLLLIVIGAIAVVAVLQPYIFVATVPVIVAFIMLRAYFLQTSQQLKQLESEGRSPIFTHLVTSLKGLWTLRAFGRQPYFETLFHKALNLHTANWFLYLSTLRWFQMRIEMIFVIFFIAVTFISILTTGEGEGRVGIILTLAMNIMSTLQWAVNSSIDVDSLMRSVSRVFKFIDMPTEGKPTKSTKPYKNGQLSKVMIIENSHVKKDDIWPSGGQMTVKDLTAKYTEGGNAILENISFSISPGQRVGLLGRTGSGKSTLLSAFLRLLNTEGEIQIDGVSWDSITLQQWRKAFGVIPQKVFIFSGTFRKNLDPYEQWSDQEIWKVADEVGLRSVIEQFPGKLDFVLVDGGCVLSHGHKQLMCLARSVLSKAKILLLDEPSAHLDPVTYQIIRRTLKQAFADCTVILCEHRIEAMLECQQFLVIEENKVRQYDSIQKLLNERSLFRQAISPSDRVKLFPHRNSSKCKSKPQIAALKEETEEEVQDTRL

Structure (SMILES) | % Activation [%] | EC50 [µM]
Cc1nn(C2CCCCC2)c2nc(C(=O)O)cc(-c3ccc(N4CCOCC4)cc3)c12 [compound 17, 1-cyclohexyl-3-methyl-4-[4-(morpholin-4-yl)phenyl]-1H-pyrazolo[3,4-b]pyridine-6-carboxylic acid] | 272.5 | 1.14
O=C(O)c1cc(OC2CCC2)c2c(C3CCC3)nn(-c3ccccc3)c2n1 [compound 585, 3-cyclobutyl-4-(cyclobutyloxy)-1-phenyl-1H-pyrazolo[3,4-b]pyridine-6-carboxylic acid] | 245.3 | 2.49
O=C(O)c1cc(N2CCN(CCO)CC2)c2c(C3CCC3)nn(-c3ccccc3)c2n1 [compound 722, 3-cyclobutyl-4-[4-(2-hydroxyethyl)piperazin-1-yl]-1-phenyl-1H-pyrazolo[3,4-b]pyridine-6-carboxylic acid] | 247 | 1.67
Cc1nn(-c2ccccc2)c2nc(C(=O)O)cc(-c3ccc(N4CCC(O)CC4)cc3)c12 [compound 144, 4-[4-(4-hydroxypiperidin-1-yl)phenyl]-3-methyl-1-phenyl-1H-pyrazolo[3,4-b]pyridine-6-carboxylic acid] | 338.4 | 2.62
CC(C)COC(=O)N1CCN(c2cc(C(=O)O)nc3c2c(C2CCC2)nn3-c2ccccc2)CC1 [compound 701, 3-cyclobutyl-4-{4-[(2-methylpropoxy)carbonyl]piperazin-1-yl}-1-phenyl-1H-pyrazolo[3,4-b]pyridine-6-carboxylic acid] | 498.5 | 0.0361
CN(C)C(=O)CN1CCN(c2cc(C(=O)O)nc3c2c(C2CCC2)nn3-c2ccccc2)CC1 [compound 559, 3-cyclobutyl-4-{4-[2-(dimethylamino)-2-oxoethyl]piperazin-1-yl}-1-phenyl-1H-pyrazolo[3,4-b]pyridine-6-carboxylic acid] | 352.47 | 2.05
Cc1nn(-c2ccccc2)c2nc(C(=O)O)cc(-c3ccc(N(C)C4CCOCC4)cc3)c12 [compound 110, 3-methyl-4-{4-[methyl(oxan-4-yl)amino]phenyl}-1-phenyl-1H-pyrazolo[3,4-b]pyridine-6-carboxylic acid] | 397.65 | 0.536
CC(C)(C)c1nn(-c2ccccc2)c2nc(C(=O)O)cc(-c3ccc(N4CCOCC4)cc3)c12 [compound 40, 3-tert-butyl-4-[4-(morpholin-4-yl)phenyl]-1-phenyl-1H-pyrazolo[3,4-b]pyridine-6-carboxylic acid] | 340.8 | 0.393
O=C(O)c1cc(N2CCC(OCCN3CCCCC3)CC2)c2c(C3CCC3)nn(-c3ccccc3)c2n1 [compound 730, 3-cyclobutyl-1-phenyl-4-{4-[2-(piperidin-1-yl)ethoxy]piperidin-1-yl}-1H-pyrazolo[3,4-b]pyridine-6-carboxylic acid] | 418.7 | 0.0715
CCCN1CCN(c2cc(C(=O)O)nc3c2c(C2CCC2)nn3-c2ccccc2)CC1 [compound 707, 3-cyclobutyl-1-phenyl-4-(4-propylpiperazin-1-yl)-1H-pyrazolo[3,4-b]pyridine-6-carboxylic acid] | 326.3 | 0.341
CN(CCN1CCOCC1)c1cc(C(=O)O)nc2c1c(C1CCC1)nn2-c1ccccc1 [compound 565, 3-cyclobutyl-4-{methyl[2-(morpholin-4-yl)ethyl]amino}-1-phenyl-1H-pyrazolo[3,4-b]pyridine-6-carboxylic acid] | 319.8 | 1.93
CC(C)c1nn(-c2ccc(F)cc2)c2nc(C(=O)O)cc(N3CCC(N4CCOCC4)CC3)c12 [compound 756, 1-(4-fluorophenyl)-4-[4-(morpholin-4-yl)piperidin-1-yl]-3-(propan-2-yl)-1H-pyrazolo[3,4-b]pyridine-6-carboxylic acid] | 446 | 0.401
CN(C)C1CCN(c2cc(C(=O)O)nc3c2c(C2CCC2)nn3-c2ccccc2)CC1 [compound 737, 3-cyclobutyl-4-[4-(dimethylamino)piperidin-1-yl]-1-phenyl-1H-pyrazolo[3,4-b]pyridine-6-carboxylic acid] | 343.3 | 1.67
CC1(c2nn(-c3ccccc3)c3nc(C(=O)O)cc(-c4ccc(N5CCOCC5)cc4)c23)COC1 [compound 113, 3-(3-methyloxetan-3-yl)-4-[4-(morpholin-4-yl)phenyl]-1-phenyl-1H-pyrazolo[3,4-b]pyridine-6-carboxylic acid] | 277 | 1.17
CN1CC(Oc2cc(C(=O)O)nc3c2c(C2CCC2)nn3-c2ccccc2)C1 [compound 601, 3-cyclobutyl-4-[(1-methylazetidin-3-yl)oxy]-1-phenyl-1H-pyrazolo[3,4-b]pyridine-6-carboxylic acid] | 173.6 | 2.48
CC(C)c1nn(-c2ccc(F)cc2)c2nc(C(=O)O)cc(N3CCC(C)(N4CCN(C)CC4)CC3)c12 [compound 761, 1-(4-fluorophenyl)-4-[4-methyl-4-(4-methylpiperazin-1-yl)piperidin-1-yl]-3-(propan-2-yl)-1H-pyrazolo[3,4-b]pyridine-6-carboxylic acid] | 284 | 1.67
CN1CCOC(C2CN(c3cc(C(=O)O)nc4c3c(C3CCC3)nn4-c3ccccc3)C2)C1 (stereo not drawn) [compound 723, 3-cyclobutyl-4-[3-(4-methylmorpholin-2-yl)azetidin-1-yl]-1-phenyl-1H-pyrazolo[3,4-b]pyridine-6-carboxylic acid] | 344.8 | 1.05
COCC1(F)CCN(c2cc(C(=O)O)nc3c2c(C(C)C)nn3-c2ccc(F)cc2)CC1 [compound 669, 4-[4-fluoro-4-(methoxymethyl)piperidin-1-yl]-1-(4-fluorophenyl)-3-(propan-2-yl)-1H-pyrazolo[3,4-b]pyridine-6-carboxylic acid] | 315.5 | 0.795
CC(C)c1nn(-c2ccc(F)cc2)c2nc(C(=O)O)cc(OCCCN3CCOCC3)c12 [compound 607, 1-(4-fluorophenyl)-4-[3-(morpholin-4-yl)propoxy]-3-(propan-2-yl)-1H-pyrazolo[3,4-b]pyridine-6-carboxylic acid] | 305.5 | 1.98
O=C(O)c1cc(N2CC[C@@H](N3CCCCC3)C2)c2c(C3CCC3)nn(-c3ccccc3)c2n1 [compound 715, 3-cyclobutyl-1-phenyl-4-[(3R)-3-(piperidin-1-yl)pyrrolidin-1-yl]-1H-pyrazolo[3,4-b]pyridine-6-carboxylic acid] | 261.4 | 1.27
CCCN1CCCN(c2cc(C(=O)O)nc3c2c(C2CCC2)nn3-c2ccccc2)CC1 [compound 712, 3-cyclobutyl-1-phenyl-4-(4-propyl-1,4-diazepan-1-yl)-1H-pyrazolo[3,4-b]pyridine-6-carboxylic acid] | 242.9 | 0.608
CC(C)c1nn(-c2ccc(F)cc2)c2nc(C(=O)O)cc(N3CC(C4CN(C)CCO4)C3)c12 (stereo not drawn) [compound 740, 1-(4-fluorophenyl)-4-[3-(4-methylmorpholin-2-yl)azetidin-1-yl]-3-(propan-2-yl)-1H-pyrazolo[3,4-b]pyridine-6-carboxylic acid] | 194.7 | 0.424
Cc1nn(-c2ccccc2)c2nc(C(=O)O)cc(-c3ccc(N4CCC(C#N)CC4)cc3)c12 [compound 109, 4-[4-(4-cyanopiperidin-1-yl)phenyl]-3-methyl-1-phenyl-1H-pyrazolo[3,4-b]pyridine-6-carboxylic acid] | 398.15 | 0.752
COCCOCCOc1cc(C(=O)O)nc2c1c(C1CCC1)nn2-c1ccccc1 [compound 586, 3-cyclobutyl-4-[2-(2-methoxyethoxy)ethoxy]-1-phenyl-1H-pyrazolo[3,4-b]pyridine-6-carboxylic acid] | 322.2 | 2
